Assays:
[1] = test system: CYPIR (Cyperus iria L., rice flatsedge); experiment: Postemergence foliar-applied herbicidal mixtures, direct seeded rice, greenhouse (Example I); assay type: in vivo
[2] = test system: ECHCG (Echinochloa crusgalli (L.) Beauv., barnyardgrass); experiment: as above; assay type: in vivo

Structure (SMILES)	Visual Weed Control (%) - 20 DAA CYPIR Obs ([1]; Compound A Benzyl Ester 4.38 gae/ha)	Visual Weed Control (%) - 22 DAA CYPIR Obs ([1]; Compound A Benzyl Ester 8 gae/ha)	Visual Weed Control (%) - 20 DAA CYPIR Obs ([1]; Compound A Benzyl Ester 8.75 gae/ha)	Visual Weed Control (%) - 22 DAA CYPIR Obs ([1]; Compound A Benzyl Ester 16 gae/ha)	Visual Weed Control (%) - 20 DAA CYPIR Obs ([1]; Compound A Benzyl Ester 17.5 gae/ha)	Visual Weed Control (%) - 27 DAA ECHCG Obs ([2]; Penoxsulam 4.38 gai/ha)	Visual Weed Control (%) - 27 DAA ECHCG Obs ([2]; Penoxsulam 8.75 gai/ha)
COc1c(Cl)ccc(-c2nc(C(=O)OCc3ccccc3)c(Cl)c(N)c2F)c1F [Compound A Benzyl Ester, benzyl ester of 4-amino-3-chloro-5-fluoro-6-(4-chloro-2-fluoro-3-methoxy-phenyl)pyridine-2-carboxylic acid]	15%	20%	60%	85%	90%		
COc1cnc(OC)n2nc(NS(=O)(=O)c3c(OCC(F)F)cccc3C(F)(F)F)nc12 [Penoxsulam, 2-(2,2-difluoroethoxy)-N-(5,8-dimethoxy[1,2,4]triazolo[1,5-c]pyrimidin-2-yl)-6-(trifluoromethyl)benzenesulfonamide, reference compound]						0%	30%

Reference: patent publication US8906825B2, “Herbicidal compositions comprising 4-amino-3-chloro-5-fluoro-6-(4-chloro-2-fluoro-3-methoxyphenyl) pyridine-2-carboxylic acid or a derivative thereof and triazolopyrimidine sulfonamides” (Dow AgroSciences LLC, priority 2012, dated 2014)
